# Assay results as given in paper PMC4867616, “Imaging of Cerebral Amyloid Angiopathy with Bivalent ^99mTc-Hydroxamamide Complexes” (Scientific Reports, 2016).
# “And” between values parts separate entries of the source, which are not always exact repeats. Equal values may be shown once. Read-outs that look alike come from different tables or passages of the source.
# Experiments:
# [1] = normal mice, i.v., mean (SD), 5 animals, cited from earlier work
# [2] = target: T1, CAA in Tg2576 mice (Homo sapiens, UniProt P05067); experiment: SPECT/CT imaging in Tg2576 and wild-type mice; assay type: in vivo; conditions: 30 min postinjection
# T1 construct: Aβ(1–40) aggregates, the predominant amyloid found in CAA; tissue Taconic Farms, Inc. (New York, USA); host or cells: brain of living female Tg2576 transgenic mice
# Procedure: SPECT/CT imaging. Tg2576 transgenic mice (female, 27 or 30 months old) and wild-type mice (female, 27 or 30 months old) were used as the Alzheimer’s model and age-matched control, respectively. A saline solution (200 μL) of [^99mTc]SB2A (29.6-55.5 MBq) containing EtOH (40 μL) was injected directly into the tail vein. At 30 or 120 min postinjection, SPECT and CT images with the brain region as the ﬁeld of view were collected using the U-SPECT-II/CT system (MILabs, Utrecht, Netherlands) with 0.6-mm pinhole collimators (SPECT conditions, 30 min × 2 frames; CT conditions, accurate full angle mode in 65 kV/615 µA). The mouse was maintained under isoflurane anesthesia, while SPECT and then CT image data were collected. SPECT images were reconstructed by the OSEM method (16 subsets, 6 iterations) with a 0.4-mm Gaussian ﬁlter.
# T1 sequence (P05067 672-711 limits assumed): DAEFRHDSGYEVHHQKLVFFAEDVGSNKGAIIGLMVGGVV
smiles,measurement,setting,value
"CN(C)c1ccc(/C=C/c2ccc(C3=N[O][99Tc-]4(=[O])([NH]3)[NH2+]C(c3ccc(/C=C/c5ccc(N(C)C)cc5)cc3)=N[O]4)cc2)cc1 (single isomer, unassigned) [[^99mTc]SB2A]","Biodistribution of radioactivity, Blood",[1]; 2 min after injection,14.28 (1.90) % injected dose per gram
same,"Biodistribution of radioactivity, Brain",[1]; 2 min after injection,0.28 % injected dose per gram and 0.28 (0.03) % injected dose per gram
same,"Biodistribution of radioactivity, Blood",[1]; 10 min after injection,7.50 (0.51) % injected dose per gram
same,"Biodistribution of radioactivity, Brain",[1]; 10 min after injection,0.17 (0.02) % injected dose per gram
same,"Biodistribution of radioactivity, Blood",[1]; 30 min after injection,5.13 % injected dose per gram and 5.13 (0.57) % injected dose per gram
same,"Biodistribution of radioactivity, Brain",[1]; 30 min after injection,0.12 (0.01) % injected dose per gram
same,"Biodistribution of radioactivity, Blood",[1]; 60 min after injection,4.17 (0.24) % injected dose per gram
same,"Biodistribution of radioactivity, Brain",[1]; 60 min after injection,0.11 (0.01) % injected dose per gram
same,Distribution in brains of Tg2576 versus wild-type mice (in vivo SPECT/CT),[2],not differentially distributed
